Values of other authors in PubChem BioAssay AID1259409 (Chemical Carcinogenesis Research Information System (CCRIS), 2018).

Tested on: rodent chemically induced tumor inhibition, incidence and multiplicity
Assay: CCRIS tumor inhibitor studies

## COc1cc(/C=C/C(=O)CC(=O)/C=C/c2ccc(O)c(OC)c2)ccc1O
Carcinogen: 7,12-DIMETHYLBENZ[A]ANTHRACENE, 57-97-6, Dose [Inhibitor]: 10 UMOL IN MINERAL OIL APPLIED TO BUCCAL POUCH 3/WK BEGINNING 2 D AFTER LAST CARCINOGEN DOSE (STUDY DURATION: 24 WK), Route [Inhibitor]: MUCOUS MEMBRANE, Species: HAMSTER, Strain/Sex: SYRIAN/MALE, Target Tissue: Type of Lesion: BUCCAL POUCH: PAPILLOMA, Dose [Carcinogen]: 0.5% IN MINERAL OIL APPLIED TO BUCCAL POUCH 3'/WK FOR 6 WK, Promoter: NONE USED
  tumour outcome (control, treated, inhibition, significance): 21/26 (80.7%), 20/26 (76.9%), 4.71%, not significant
Carcinogen: 7,12-DIMETHYLBENZ[A]ANTHRACENE, 57-97-6, Dose [Inhibitor]: 10 UMOL IN MINERAL OIL APPLIED TO BUCCAL POUCH 3/WK BEGINNING 2 D AFTER LAST CARCINOGEN DOSE (STUDY DURATION: 24 WK), Route [Inhibitor]: MUCOUS MEMBRANE, Species: HAMSTER, Strain/Sex: SYRIAN/MALE, Target Tissue: Type of Lesion: BUCCAL POUCH: SQUAMOUS CELL CARCINOMA, Dose [Carcinogen]: 0.5% IN MINERAL OIL APPLIED TO BUCCAL POUCH 3'/WK FOR 6 WK, Promoter: NONE USED
  tumour outcome (control, treated, inhibition, significance): 20/26 (76.9%), 13/26 (50%), 35%, p< 0.05
Carcinogen: 7,12-DIMETHYLBENZ[A]ANTHRACENE, 57-97-6, Dose [Inhibitor]: 10 UMOL IN MINERAL OIL APPLIED TO BUCCAL POUCH 3/WK BEGINNING 2 D AFTER LAST CARCINOGEN DOSE (STUDY DURATION: 24 WK), Route [Inhibitor]: MUCOUS MEMBRANE, Species: HAMSTER, Strain/Sex: SYRIAN/MALE, Target Tissue: Type of Lesion: BUCCAL POUCH: TUMOR, Dose [Carcinogen]: 0.5% IN MINERAL OIL APPLIED TO BUCCAL POUCH 3'/WK FOR 6 WK, Promoter: NONE USED
  tumour outcome (control, treated, inhibition, significance): 24/26 (92.3%), 20/26 (76.9%), 16.7%, not significant
Carcinogen: 7,12-Dimethylbenzanthracene, 57-97-6, Dose [Inhibitor]: 1% as turmeric (equivalent to 0.05% curcumin) in diet, starting 15 d before carcinogen application to 12 wks after carci, Route [Inhibitor]: Diet, Species: Hamster, Strain/Sex: Syrian golden/Male, Target Tissue: Type of Lesion: Buccal (oral) tissues: Tumor, Dose [Carcinogen]: 0.5% in 0.1 ml oil 3 x wk for 12 wk, study duration 12 wk, Promoter: None
  tumour outcome (control, treated, inhibition, significance): 100%, 55%, 45% at 12 wks (from table)
Carcinogen: AZOXYMETHANE, 25843-45-2, Dose [Inhibitor]: 0, 0.5% COMMERCIAL GRADE CURCUMIN IN DIET FOR 35 WK BEGINNING 2 WK PRIOR TO CARCINOGEN TREATMENT (STUDY DURATION: 35 WK), Route [Inhibitor]: ORAL, Species: MOUSE, Strain/Sex: CF-1/FEMALE, Target Tissue: Type of Lesion: COLON: ADENOCARCINOMA, Dose [Carcinogen]: 10 MG/KG BW IN 100 µL NORMAL SALINE 1/WK FOR 6 WK, Promoter: NONE USED
  tumour outcome (control, treated, inhibition, significance): 40%, 22%, 45%, not significant
Carcinogen: AZOXYMETHANE, 25843-45-2, Dose [Inhibitor]: 0, 0.5% COMMERCIAL GRADE CURCUMIN IN DIET FOR 35 WK BEGINNING 2 WK PRIOR TO CARCINOGEN TREATMENT (STUDY DURATION: 35 WK), Route [Inhibitor]: ORAL, Species: MOUSE, Strain/Sex: CF-1/FEMALE, Target Tissue: Type of Lesion: COLON: ADENOMA, Dose [Carcinogen]: 10 MG/KG BW IN 100 µL NORMAL SALINE 1/WK FOR 6 WK, Promoter: NONE USED
  tumour outcome (control, treated, inhibition, significance): 93%, 69%, 26%, not significant
Carcinogen: AZOXYMETHANE, 25843-45-2, Dose [Inhibitor]: 0, 2% COMMERCIAL GRADE CURCUMIN IN DIET FOR 9 WK BEGINNING 2 WK PRIOR TO CARCINOGEN TREATMENT (STUDY DURATION: 35 WK), Route [Inhibitor]: ORAL, Species: MOUSE, Strain/Sex: CF-1/FEMALE, Target Tissue: Type of Lesion: COLON: ADENOCARCINOMA, Dose [Carcinogen]: 10 MG/KG BW IN 100 µL NORMAL SALINE 1/WK FOR 6 WK, Promoter: NONE USED
  tumour outcome (control, treated, inhibition, significance): 40%, 9%, 78%, not significant
Carcinogen: AZOXYMETHANE, 25843-45-2, Dose [Inhibitor]: 0, 2% COMMERCIAL GRADE CURCUMIN IN DIET FOR 9 WK BEGINNING 2 WK PRIOR TO CARCINOGEN TREATMENT (STUDY DURATION: 35 WK), Route [Inhibitor]: ORAL, Species: MOUSE, Strain/Sex: CF-1/FEMALE, Target Tissue: Type of Lesion: COLON: ADENOMA, Dose [Carcinogen]: 10 MG/KG BW IN 100 µL NORMAL SALINE 1/WK FOR 6 WK, Promoter: NONE USED
  tumour outcome (control, treated, inhibition, significance): 93%, 61%, 34%, not significant
Carcinogen: AZOXYMETHANE, 25843-45-2, Dose [Inhibitor]: 0, 2% COMMERCIAL GRADE CURCUMIN IN DIET FOR 26 WK BEGINNING 1 WK POST CARCINOGEN TREATMENT (STUDY DURATION: 35 WK), Route [Inhibitor]: ORAL, Species: MOUSE, Strain/Sex: CF-1/FEMALE, Target Tissue: Type of Lesion: COLON: ADENOCARCINOMA, Dose [Carcinogen]: 10 MG/KG BW IN 100 µL NORMAL SALINE 1/WK FOR 6 WK, Promoter: NONE USED
  tumour outcome (control, treated, inhibition, significance): 40%, 24%, 40%, not significant
Carcinogen: AZOXYMETHANE, 25843-45-2, Dose [Inhibitor]: 0, 2% COMMERCIAL GRADE CURCUMIN IN DIET FOR 26 WK BEGINNING 1 WK POST CARCINOGEN TREATMENT (STUDY DURATION: 35 WK), Route [Inhibitor]: ORAL, Species: MOUSE, Strain/Sex: CF-1/FEMALE, Target Tissue: Type of Lesion: COLON: ADENOMA, Dose [Carcinogen]: 10 MG/KG BW IN 100 µL NORMAL SALINE 1/WK FOR 6 WK, Promoter: NONE USED
  tumour outcome (control, treated, inhibition, significance): 93%, 85%, 9%, not significant
Carcinogen: AZOXYMETHANE, 25843-45-2, Dose [Inhibitor]: 0, 2% COMMERCIAL GRADE CURCUMIN IN DIET FOR 35 WK BEGINNING 2 WK PRIOR TO CARCINOGEN TREATMENT (STUDY DURATION: 35 WK), Route [Inhibitor]: ORAL, Species: MOUSE, Strain/Sex: CF-1/FEMALE, Target Tissue: Type of Lesion: COLON: ADENOCARCINOMA, Dose [Carcinogen]: 10 MG/KG BW IN 100 µL NORMAL SALINE 1/WK FOR 6 WK, Promoter: NONE USED
  tumour outcome (control, treated, inhibition, significance): 40%, 0%, 100%, not significant
Carcinogen: AZOXYMETHANE, 25843-45-2, Dose [Inhibitor]: 0, 2% COMMERCIAL GRADE CURCUMIN IN DIET FOR 35 WK BEGINNING 2 WK PRIOR TO CARCINOGEN TREATMENT (STUDY DURATION: 35 WK), Route [Inhibitor]: ORAL, Species: MOUSE, Strain/Sex: CF-1/FEMALE, Target Tissue: Type of Lesion: COLON: ADENOMA, Dose [Carcinogen]: 10 MG/KG BW IN 100 µL NORMAL SALINE 1/WK FOR 6 WK, Promoter: NONE USED
  tumour outcome (control, treated, inhibition, significance): 93%, 68%, 27%, not significant
Carcinogen: AZOXYMETHANE, 25843-45-2, Dose [Inhibitor]: 0, 2% PURE CURCUMIN IN DIET FOR 35 WK BEGINNING 2 WK PRIOR TO CARCINOGEN TREATMENT (STUDY DURATION: 35 WK), Route [Inhibitor]: ORAL, Species: MOUSE, Strain/Sex: CF-1/FEMALE, Target Tissue: Type of Lesion: COLON: ADENOCARCINOMA, Dose [Carcinogen]: 10 MG/KG BW IN 100 µL NORMAL SALINE 1/WK FOR 6 WK, Promoter: NONE USED
  tumour outcome (control, treated, inhibition, significance): 40%, 14%, 65%, not significant
Carcinogen: AZOXYMETHANE, 25843-45-2, Dose [Inhibitor]: 0, 2% PURE CURCUMIN IN DIET FOR 35 WK BEGINNING 2 WK PRIOR TO CARCINOGEN TREATMENT (STUDY DURATION: 35 WK), Route [Inhibitor]: ORAL, Species: MOUSE, Strain/Sex: CF-1/FEMALE, Target Tissue: Type of Lesion: COLON: ADENOMA, Dose [Carcinogen]: 10 MG/KG BW IN 100 µL NORMAL SALINE 1/WK FOR 6 WK, Promoter: NONE USED
  tumour outcome (control, treated, inhibition, significance): 93%, 62%, 33%, not significant
